Assay results taken from ChEMBL document CHEMBL1201862, “PubChem BioAssay data set” (2004).
Activity calls are given as the source filed them. Cut-off read from the data, not from the text of the source, for most assays here: actives have a measured EC50 and inactives only a lower limit.

How the values were obtained:
[1] = Trypanosoma cruzi growth suppression in host cells – NIH3T3 host cells, beta-gal luminescence, confirmation (AID 2044); assay type: functional, cell-based;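 note: intracellular parasites grown in NIH/3T3 mouse fibroblasts as host cells; luminescent beta-galactosidase reporter signal from transgenic T. cruzi replicating inside host cells; inhibitors lower the luminescence signal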
[2] = NIH3T3 cell viability loss – ATP luminescence, mouse fibroblasts, counter-screen, dose response (AID 2010); assay type: functional, cell-based;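 note: cells exposed to compound for about 90 hours before reading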
[3] = target: T1, Heat shock factor protein 1 (Mus musculus, UniProt P38532); assay: enhancement of HSF1-driven luciferase signal – cell-based, NIH3T3, luminescence, dose retest, confirmation (AID 435004); assay type: functional;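 note: stress induced by proteasome inhibitor MG132 added 30 min after compound; luciferase reporter driven by HSF1 response element in NIH3T3 cells; actives raise luminescence as potentiators of the MG132 stress response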
T1 sequence (P38532 whole entry): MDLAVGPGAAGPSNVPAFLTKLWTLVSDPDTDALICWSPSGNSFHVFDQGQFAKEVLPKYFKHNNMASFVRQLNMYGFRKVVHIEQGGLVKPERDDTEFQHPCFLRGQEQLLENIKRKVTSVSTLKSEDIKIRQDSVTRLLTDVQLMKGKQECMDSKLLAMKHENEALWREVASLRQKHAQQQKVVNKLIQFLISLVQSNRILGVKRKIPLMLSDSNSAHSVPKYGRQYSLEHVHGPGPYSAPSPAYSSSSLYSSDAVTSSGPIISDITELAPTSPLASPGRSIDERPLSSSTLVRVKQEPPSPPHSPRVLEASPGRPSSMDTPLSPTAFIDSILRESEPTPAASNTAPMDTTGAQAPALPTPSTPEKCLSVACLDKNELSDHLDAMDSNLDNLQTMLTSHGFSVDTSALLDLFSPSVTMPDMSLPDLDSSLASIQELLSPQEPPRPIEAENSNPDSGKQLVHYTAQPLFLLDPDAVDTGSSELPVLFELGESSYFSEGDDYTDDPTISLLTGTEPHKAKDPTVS

INS1 = assay: INS-1E survival protection against cytokine death – cell-based, luminescence, retest, dose response (AID 449756); assay type: functional; details: Rattus norvegicus;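 note: cell death triggered by IL-1 beta plus TNF-alpha plus IFN-gamma mixture; protective hits raise ATP signal compared with cytokine alone wells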
H9c2 = assay: cells; assay type: functional, cell-based; details: Rattus norvegicus, H9c2, Myocardium;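 note: confirmatory concentration-response retest of ultra-high-throughput screening hits for modulation of myocardial damage; cell death induced by hydrogen peroxide oxidative stress; compound pretreatment for 60 min then peroxide exposure for 2 h; potency is for protecting the cells against peroxide damage rather than for killing them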
[4] = Luminescence Cell-Based Dose Retest to Confirm Inhibitors of Cancer Stem Cells. [Related pubchem assays (depositor defined):AID2717, AID2721]; assay type: functional; details: Homo sapiens
[5] = tested on: Streptococcus sp. 'group A'; assay: Streptococcus pyogenes SK(-)GAS viability under kanamycin – luminescence, BacTiterGlo, confirmation, counter-screen for streptokinase expression inhibitor project, dose response (AID 1900); assay type: functional, organism-based
Streptococcus = assay: GAS UMAA2166 growth inhibition – luminescence, BacTiterGlo, counter-screen for streptokinase expression inhibitor project, dose response (AID 1915); assay type: functional, organism-based;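 note: potency for reduction of bacterial viability or growth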
Protein skinhead-1 = target: T2, Protein skinhead-1 (Caenorhabditis elegans, UniProt P34707); assay type: functional
T2 sequence (P34707 whole entry): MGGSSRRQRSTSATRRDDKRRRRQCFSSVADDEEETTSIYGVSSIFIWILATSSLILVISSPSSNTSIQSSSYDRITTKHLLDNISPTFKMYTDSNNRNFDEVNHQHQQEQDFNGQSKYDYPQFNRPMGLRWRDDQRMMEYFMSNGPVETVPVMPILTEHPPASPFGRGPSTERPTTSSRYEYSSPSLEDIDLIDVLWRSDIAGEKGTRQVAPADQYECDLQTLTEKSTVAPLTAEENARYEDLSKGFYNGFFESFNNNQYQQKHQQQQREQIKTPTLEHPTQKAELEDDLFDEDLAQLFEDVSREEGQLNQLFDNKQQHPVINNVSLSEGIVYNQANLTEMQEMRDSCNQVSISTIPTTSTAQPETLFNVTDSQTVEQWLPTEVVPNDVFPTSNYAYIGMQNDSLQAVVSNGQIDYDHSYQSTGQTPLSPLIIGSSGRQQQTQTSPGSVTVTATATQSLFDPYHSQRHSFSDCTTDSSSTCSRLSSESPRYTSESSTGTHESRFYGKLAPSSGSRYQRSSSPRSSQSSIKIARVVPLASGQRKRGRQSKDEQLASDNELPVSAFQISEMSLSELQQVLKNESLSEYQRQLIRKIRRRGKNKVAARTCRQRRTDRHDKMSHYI

[6] = Luminescence Cell-Based Dose Response HTS to Identify Activators of Luciferase Translation or Activity in H4 […] Cells. [Related pubchem assays: 1829 (Project Summary), 1814 (Primary HTS)]; assay type: functional
H4 = assay: Luminescence Cell-Based Dose Response HTS to Identify Activators of 5'UTR Stem-Loop Driven Prion Protein mRNA Translation in H4 Neuroglioblastoma Cells. [Related pubchem assays: 1829 (Project Summary), 1814 (Primary HTS)]; assay type: functional; details: Homo sapiens
[7] = Luminescence Cell-Based Dose Confirmation HTS to Identify Activators of 5'UTR Stem-Loop Driven Alpha-Synuclein mRNA Translation in H4 Neuroglioblastoma Cells. [Related pubchem assays: 1829 (Project Summary), 1814 (Primary HTS)]; assay type: functional
[8] = viability of uninfected HEp-2 cells – cell-based, HTS, cytotoxicity control for RSV inhibitor project, dose response (AID 2410); assay type: functional; details: human respiratory syncytial virus
[9] = target: T3, Corticotropin-releasing factor receptor 2/Corticotropin-releasing factor-binding protein (Homo sapiens, UniProt P24387+Q13324); assay: activators of CRF receptor 2 with binding protein – uHTS hits, confirmation (AID 602473); assay type: functional; details: read-out: EC50_Mean
T3 sequence (Q13324 whole entry): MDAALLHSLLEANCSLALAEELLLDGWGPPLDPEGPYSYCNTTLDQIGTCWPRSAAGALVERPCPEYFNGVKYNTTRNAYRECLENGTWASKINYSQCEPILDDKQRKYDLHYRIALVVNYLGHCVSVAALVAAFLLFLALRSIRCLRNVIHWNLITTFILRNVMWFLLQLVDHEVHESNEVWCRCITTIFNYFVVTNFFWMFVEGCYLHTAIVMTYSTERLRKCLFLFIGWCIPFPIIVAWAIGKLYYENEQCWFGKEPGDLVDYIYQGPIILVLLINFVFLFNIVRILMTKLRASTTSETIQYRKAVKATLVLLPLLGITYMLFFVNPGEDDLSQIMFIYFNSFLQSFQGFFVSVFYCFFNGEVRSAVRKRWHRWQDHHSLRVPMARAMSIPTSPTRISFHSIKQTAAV
T3 sequence (P24387 whole entry): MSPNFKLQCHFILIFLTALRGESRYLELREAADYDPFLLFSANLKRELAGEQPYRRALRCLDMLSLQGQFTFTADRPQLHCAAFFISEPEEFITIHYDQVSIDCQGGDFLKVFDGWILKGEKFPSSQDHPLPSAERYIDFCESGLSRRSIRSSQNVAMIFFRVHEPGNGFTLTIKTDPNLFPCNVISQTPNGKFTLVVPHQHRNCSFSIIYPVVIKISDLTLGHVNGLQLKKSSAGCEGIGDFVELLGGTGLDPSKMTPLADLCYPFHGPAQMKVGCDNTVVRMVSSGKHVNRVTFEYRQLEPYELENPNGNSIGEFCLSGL

[10] = target: T4, Rac GTPase-activating protein 1 (Homo sapiens, UniProt Q9H0H5); assay: blockers of MgcRacGAP-driven Rac1 GTP hydrolysis – biochemical, ADP Hunter fluorescence, primary and confirmatory, confirmation (AID 624330); assay type: functional
T4 sequence (Q9H0H5 whole entry): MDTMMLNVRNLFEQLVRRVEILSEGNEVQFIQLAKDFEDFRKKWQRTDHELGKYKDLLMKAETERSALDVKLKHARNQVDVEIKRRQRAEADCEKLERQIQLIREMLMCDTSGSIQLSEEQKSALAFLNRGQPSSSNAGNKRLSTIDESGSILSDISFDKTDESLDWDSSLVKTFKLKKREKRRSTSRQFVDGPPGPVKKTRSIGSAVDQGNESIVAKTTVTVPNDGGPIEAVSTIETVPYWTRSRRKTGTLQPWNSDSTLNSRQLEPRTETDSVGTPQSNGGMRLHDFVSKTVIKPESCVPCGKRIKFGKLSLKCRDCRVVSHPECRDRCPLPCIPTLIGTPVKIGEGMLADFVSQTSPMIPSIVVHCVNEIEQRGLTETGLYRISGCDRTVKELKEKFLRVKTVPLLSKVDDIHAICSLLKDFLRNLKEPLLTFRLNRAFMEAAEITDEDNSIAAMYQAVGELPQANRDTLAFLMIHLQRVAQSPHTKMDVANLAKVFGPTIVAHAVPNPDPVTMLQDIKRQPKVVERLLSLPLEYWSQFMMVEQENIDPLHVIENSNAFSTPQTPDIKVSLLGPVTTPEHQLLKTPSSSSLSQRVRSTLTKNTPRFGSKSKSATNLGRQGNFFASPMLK

Paired box protein Pax-8 = Paired box protein Pax-8 (Homo sapiens, UniProt Q06710); assay: PAX8 transcriptional activity inhibition in RMG-I – RMG-I cells, luciferase, cherry-pick, dose response (AID 687027); assay type: functional, cell-based;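 note: luciferase reporter driven by Pax8 target thyroperoxidase promoter measured by SteadyGlo luminescence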
Sequence of Paired box protein Pax-8 (Q06710 whole entry): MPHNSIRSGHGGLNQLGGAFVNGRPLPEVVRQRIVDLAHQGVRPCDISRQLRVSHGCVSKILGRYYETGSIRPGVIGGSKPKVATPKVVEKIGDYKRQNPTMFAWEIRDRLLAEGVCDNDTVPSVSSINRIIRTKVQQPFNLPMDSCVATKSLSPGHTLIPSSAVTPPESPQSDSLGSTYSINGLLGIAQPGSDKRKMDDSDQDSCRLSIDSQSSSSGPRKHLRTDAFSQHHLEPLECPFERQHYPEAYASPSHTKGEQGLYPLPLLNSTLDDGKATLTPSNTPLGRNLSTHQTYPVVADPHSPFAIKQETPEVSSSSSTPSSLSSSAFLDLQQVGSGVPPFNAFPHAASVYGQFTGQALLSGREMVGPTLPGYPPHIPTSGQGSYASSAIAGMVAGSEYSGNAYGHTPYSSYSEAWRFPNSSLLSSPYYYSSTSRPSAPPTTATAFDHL

SMILES: Cc1[nH]c2ccccc2c1CN1CCN(c2ccccn2)CC1
- EC50 [1]: 1.28 µM (active)
- EC50 [2]: > 60 µM (not active)
- EC50 [3]: 84 µM (active)
- AC50 (INS1): 4.21 µM (active)

SMILES: Cc1ccc(-c2cn(S(=O)(=O)c3ccc(C)cc3)nc2N)cc1
- EC50 [3]: > 260 µM (inactive)

SMILES: O=C(Cn1[nH]c(=O)c2ccccc2c1=O)OCC(=O)N1CCCc2ccccc21
- IC50 (H9c2): > 79 µM (inactive)

SMILES: Cc1ccc(C)c(NC(=O)CSc2nc(O)c3c(C(F)(F)F)cc(-c4cccs4)nc3n2)c1
- AC50 [4]: 2.92 µM (active)
- EC50 [5]: 2.45 µM (active)
- EC50 (Streptococcus): 3.04 µM (active)

SMILES: COc1ccc(-c2c(C)c3cc(O)ccc3oc2=O)cc1OC
- EC50 [3]: > 260 µM (inactive)

SMILES: O=[N+]([O-])c1cccc(-c2csc(Nc3ccccc3)n2)c1
- AC50 [4]: 4.04 µM (active)
- IC50 (Protein skinhead-1): > 100 µM (inactive)

SMILES: CC1=C(Sc2nc3ccccc3[nH]2)C(=O)NC(C)(C)C1
- EC50 [3]: > 260 µM (inactive)

SMILES: O=C(NN=Cc1ccc(N2CCOCC2)s1)c1ccc([N+](=O)[O-])cc1
- IC50 (H9c2): 13.1 µM (active)

SMILES: CN1CCN(c2ccc(NC(=O)COc3ccc(Cl)cc3Cl)cc2)CC1
- AC50 [4]: 2.6 µM (active)

SMILES: CC1CN(c2nn3c(=O)c4ccccc4nc3c3ccccc23)CC(C)O1 (stereo unspecified)
- IC50 (H9c2): > 79 µM (inactive)

SMILES: CC(C)c1ccc2[nH]c3c(c2c1)[C@@H]1CCN2C(=O)CCC[C@H](C3)[C@H]12
- EC50 [6]: 53.6 µM (active)
- EC50 (H4): > 120 µM (not active)
- EC50 [7]: 11.9 µM (active)

SMILES: O=C(c1ccccc1)c1ccc2nc(N3CCN(C(=O)c4ccco4)CC3)c3nncn3c2c1
- IC50 (H9c2): > 79 µM (inactive)

SMILES: CC1(C)CC(=O)c2sc(NC(=O)C(C)(C)C)nc2C1
- EC50 [6]: 1.31 µM (active)
- EC50 (H4): 18.5 µM (active)
- EC50 [7]: 16 µM (active)

SMILES: O=C1NC(c2ccccc2)=N/C1=C/c1ccco1
- EC50 [6]: 55.5 µM (active)
- EC50 (H4): 5.71 µM (active)
- EC50 [7]: 0.322 µM (active)

SMILES: Cc1cc(C)nc(NC(=O)CSc2nc3ccccc3s2)n1
- EC50 [6]: 48.4 µM (active)
- EC50 (H4): 15.1 µM (active)
- EC50 [7]: 4.91 µM (active)

SMILES: CCOC(=O)C1(Cc2cccc(OC)c2)CCCN(C(=O)c2cc(C)[nH]n2)C1 (stereo unspecified)
- EC50 [6]: 23.2 µM (active)
- EC50 (H4): > 120 µM (not active)
- EC50 [7]: 12.5 µM (active)

SMILES: CCc1n[nH]c(SCc2ccc(OCC(C)C)cc2)n1
- EC50 [6]: 10.2 µM (active)
- EC50 (H4): > 120 µM (not active)
- EC50 [7]: 22.6 µM (active)

SMILES: COc1cc2c(cc1OC)C(COc1ccc3c(C)cc(=O)oc3c1)N(C(=O)c1ccco1)CC2 (stereo unspecified)
- IC50 (H9c2): > 79 µM (inactive)

SMILES: CC(=O)c1ccc(NC(=O)CSc2nc(=O)cc(N)n2-c2ccccc2)cc1
- EC50 [6]: 12.3 µM (active)
- EC50 (H4): 10.9 µM (active)
- EC50 [7]: 22.5 µM (active)

SMILES: CC(C)(c1ccccc1)c1ccc(OCCCN2CCNCC2)cc1
- EC50 [1]: 2.42 µM (active)
- EC50 [2]: 15.1 µM (active)
- AC50 [4]: 0.2 µM (active)
- EC50 [3]: 60.7 µM (active)

SMILES: CN(C)N(Cc1ccccc1)C(=O)C(O)(c1ccccc1)c1ccccc1
- IC50 (H9c2): > 79 µM (inactive)

SMILES: Cc1oc2ccc(NS(=O)(=O)c3ccc(C(C)(C)C)cc3)cc2c1C(=O)Nc1ccccc1
- EC50 [3]: > 260 µM (inactive)

SMILES: CC(C)(C)OC(=O)NCC12C=CC(O1)C1C(=O)N(Cc3ccccc3)C(=O)C12 (stereo unspecified)
- IC50 (H9c2): > 79 µM (inactive)
- IC50 (Protein skinhead-1): > 100 µM (inactive)

SMILES: COc1cc(C(=O)Sc2ccc(Cl)cc2)cc(OC)c1OC
- EC50 [3]: 1.49 µM (active)
- CC50 [8]: 32.8 µM (active)

SMILES: Cc1ccc(O)c(NC(=O)c2onc(C)c2Cl)c1
- EC50 [3]: 3.11 µM (active)

SMILES: COc1cc(/C=C/C(=O)Nc2ccc3nc4n(c(=O)c3c2)CCCC4)cc(OC)c1OC
- IC50 (H9c2): > 79 µM (inactive)

SMILES: O=S(=O)(c1cccc(F)c1)N1CCN(c2nc(-c3cccnc3)nc3ccccc23)CC1
- IC50 (H9c2): > 79 µM (inactive)

SMILES: COc1ccc(-c2oc(=O)c3cc(OC)c(OC)cc3c2C#CCCO)cc1
- IC50 (H9c2): > 79 µM (inactive)

SMILES: CCCCn1/c(=N/C(=O)c2cccnc2)c(C#N)cc2c(=O)n3cccc(C)c3nc21
- IC50 (H9c2): 26.2 µM (active)
- EC50 [9]: > 53 µM (inactive)

SMILES: Cc1cc(Br)cc(/C=N/c2ccc(N3CCOCC3)cc2)c1O
- IC50 [10]: 14.6 µM (active)
- IC50 (H9c2): 19.7 µM (active)

SMILES: C[C@H]1CN([C@@H](C)CO)C(=O)Cc2cc(NC(=O)Nc3ccc(C(F)(F)F)cc3)ccc2O[C@H]1CN(C)C(=O)NC1CCCCC1
- AC50 (Paired box protein Pax-8): 10.2 µM (active)

SMILES: Cn1c(=O)n(/N=C/c2ccccc2)c2ccccc21
- EC50 [6]: 10.7 µM (active)
- EC50 (H4): 31 µM (active)
- EC50 [7]: 17.3 µM (active)
